Drawing on patent US12247032B2, “Substituted pyrazolo[1,5-a]pyrimidines as inhibitors of JAK kinases” (Genentech, Inc., priority 2019, dated 2025), this text covers Ki and IC50 for ten compounds.

The target of test [1] is T1, Recombinant human JAK2 kinase domain protein (Residues 812-1132) (Homo sapiens, UniProt O60674).
T1 construct: human JAK2 kinase domain protein (Residues 812-1132); made in house; host or cells: insect cells
Put plainly: JAK2 biochemical assay (microfluidic mobility shift, peptide phosphorylation). The note with it: 25 μM ATP, 0.2 nM total JAK2; Ki calculated from Ki app (tight-binding, competitive); read-out: Biochem JAK2 Ki. How it is done: (§1) The in vitro biochemical assays quantify JAK-catalyzed phosphorylation of a synthetic peptide, as detected using a LabChip® EZ Reader II microfluidic mobility shift instrument (PerkinElmer; Waltham, MA). The substrate peptide Y-1B has the sequence 5-FAM-VALVDGYFRLTT-NH2. Y-1B is fluorescently labeled on the N-terminus with 5-FAM (5-carboxyfluorescein) and contains a single tyrosine residue (Y) that can be phosphorylated by JAK activity. The substrate peptide stock is prepared in DMSO at 5 mM. Purified recombinant human JAK1 kinase domain protein (Residues 854-1154) was expressed in insect cells and procured from Proteros Biostructures GmbH (Martinsried, Germany). Recombinant human JAK2 kinase domain protein (Residues 812-1132) was expressed in insect cells and purified at Genentech, Inc. (South San Francisco, CA).
(§2) The kinase reaction mixtures contained 100 mM 4-(2-hydroxyethyl)-1-piperazineethanesulfonic acid (HEPES) buffer (pH 7.2), 10 mM magnesium chloride, 0.015% Brij® 35, 4 mM dithiothreitol, 1.5 μM Y-1B peptide substrate, 25 μM adenosine triphosphate (ATP), 1 nM total JAK1 or 0.2 nM total JAK2, and up to 1000 nM test compound in a final concentration of 2% (volume to volume [v/v]) DMSO. In each titration experiment, test compound was tested in duplicate at each of the twelve concentrations. Blank reactions contained ATP, peptide, and DMSO, but no JAK or test compound, whereas uninhibited control reactions contained ATP, peptide, JAK, and DMSO, but no test compound.
(§3) Peptide plus ATP mixture (24 μL) was added to 1 μL of test compound in DMSO (or DMSO alone). The reactions were initiated by adding 25 μL of JAK enzyme to the inhibitor/peptide/ATP mixture before thoroughly mixing the resultant solution. Reactions were incubated at room temperature (22° C.-23° C.) in a final volume of 50 μL per well in 384-well plates. After a 30-minute incubation, the reactions were stopped by adding 25 μL of 150 mM ethylenediaminetetraacetic acid in 100 mM HEPES buffer (pH 7.2) containing 0.015% Brij 35 to each well.
(§4) In each reaction, the residual Y-1B substrate and the phospho-peptide product generated were separated using the EZ Reader 1 instrument. Electrophoretic separation of molecules of product from molecules of substrate was achieved using downstream and upstream voltages of −500 and −2600 V, respectively, at an operating pressure of −1.3 psi. The 5-FAM group present on both the substrate and product peptides was excited at 488 nm, the fluorescence was detected at 530 nm, and the peak heights were reported.
(§5) The extent (or percent) of conversion of substrate to product was calculated from the corresponding peak heights in the electropherogram using HTS Well Analyzer software, Version 5.2 (PerkinElmer), and the following equation (Equation 1): % conversion=[P[…](S+P)]×100 Equation 1 where S and P represent the peak heights of the substrate and product, respectively. After any baseline signal from blank wells containing no JAK was subtracted from the signal of all test wells, the % conversion data were converted to fractional activity as shown in Equation 2, where νi and νo are the % conversion in the presence and absence of test compound, respectively. The % conversion observed in the uninhibited control reactions containing JAK and DMSO vehicle, but no test compound, was defined to have fractional activity=1 (with no inhibitor present, νi=νo), whereas blank wells with no JAK were defined as having fractional activity=0. Fractional activity was plotted against test compound concentration and the data were fitted using XLfit software (IDBS; Guildford, United Kingdom) to a tight-binding apparent inhibition constant (Ki^app) quadratic equation (see Equation 2) (Williams J W, Morrison J F. The kinetics of reversible tight-binding inhibition. Methods Enymol 1979; 63:437-67), which was used to calculate fractional activity and Ki^app […]

Test [2] deals with T2, recombinant human JAK1 kinase domain protein (Residues 854-1154) (Homo sapiens, UniProt P23458).
T2 construct: human JAK1 kinase domain protein (Residues 854-1154); purchased Proteros Biostructures GmbH (Martinsried, Germany); host or cells: insect cells
Put plainly: JAK1 biochemical assay (microfluidic mobility shift, peptide phosphorylation). The note with it: 25 μM ATP, 1 nM total JAK1; Ki calculated from Ki app (tight-binding, competitive); read-out: Biochem JAK1 Ki. How it is done: as §1, §2, §3, §4, §5

Test [3] has as its system JAK1 (IL-13-stimulated STAT6 phosphorylation in BEAS-2B cells). The experiment in a line: P-STAT6 BEAS-2B+IL-13 cell assay. Format: cell-based, human. Particulars: 1 hour compound, IL-13 15 minutes, IC50 by four-parameter fit, read-out: Cellular JAK1 PSTAT6 BEAS2B + IL13. How it is done:
In order to study the effect of JAK1 inhibitors in a cell line that is relevant to the cell biology of human asthma, an IL-13-stimulated STAT6 phosphorylation assay in the human lung bronchial epithelial BEAS-2B cell line was developed.
BEAS-2B cells (ATCC® CRL-9609™) were grown in Bronchial Epithelial Growth Medium (BEGM) (Lonza Catalog No. CC-3170; Walkersville, MD; or PromoCell Catalog No. C-21060; Heidelberg, Germany). Test compound stock solutions (0.5 mM in DMSO) were serially diluted 1:2 in DMSO to generate a 10-point concentration curve (at 500× test concentration), which was further diluted by a 50-fold dilution step in BEGM to generate a 10× concentration curve (in 2% DMSO). Cells were plated at 100,000 cells/well in 200 μL of BEGM in 96-well plates and incubated for 48 hours at 37° C. in a humidified incubator. Medium was aspirated from the cells and replaced with 70 μL of fresh BEGM. Diluted test compound (10 μL; or 2% DMSO in assay medium) was added to the cells, and the plates were incubated for 1 hour at 37° C. in a humidified incubator. Twenty μL of 250 ng/mL human recombinant IL-13 (Bio Techne Catalog No. 213-ILB) was then added to the cells and incubated for 15 minutes at 37° C. Medium was aspirated from the cells and 60 μL of ice-cold 1×cell lysis buffer (Cell Signaling Technologies; Catalog No. 9803S) containing 1 mM PMSF was added to the cells. Assay plates were incubated at −80° C. for at least 1 hour. P-STAT6 was measured by coating GAR plates (MSD; Catalog No. L45RA-1) with rabbit anti-human total STAT6 antibody (Cell Signaling Technologies; Catalog No. 9362S), incubating the cell lysates in the coated plates overnight at 4° C., and then detecting with mouse anti-phospho-STAT6 (Tyr641) Clone 16E12 antibody (Millipore; Catalog No. 05-590, custom labeled by MSD with SULFO-tag) using standard MSD plate processing, washing, and detection protocols. Plates were read on the MESO SECTOR S600.
Data analysis was performed by subtracting negative control values from all wells and determining percent of control using the positive control values; the IC50 was determined with a four-parameter logistic fit model as shown in Equation 4.

Read-outs that look alike come from different tables or passages of the source.

T2 sequence (P23458 854-1154): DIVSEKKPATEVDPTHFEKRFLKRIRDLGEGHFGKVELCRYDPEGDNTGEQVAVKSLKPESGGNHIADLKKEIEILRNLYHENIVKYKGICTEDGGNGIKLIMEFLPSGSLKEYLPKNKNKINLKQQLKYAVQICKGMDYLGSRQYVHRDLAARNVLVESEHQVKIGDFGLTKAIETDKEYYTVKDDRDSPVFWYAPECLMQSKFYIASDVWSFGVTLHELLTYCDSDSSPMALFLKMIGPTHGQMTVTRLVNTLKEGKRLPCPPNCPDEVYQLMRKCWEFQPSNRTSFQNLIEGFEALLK
T1 sequence (O60674 812-1132): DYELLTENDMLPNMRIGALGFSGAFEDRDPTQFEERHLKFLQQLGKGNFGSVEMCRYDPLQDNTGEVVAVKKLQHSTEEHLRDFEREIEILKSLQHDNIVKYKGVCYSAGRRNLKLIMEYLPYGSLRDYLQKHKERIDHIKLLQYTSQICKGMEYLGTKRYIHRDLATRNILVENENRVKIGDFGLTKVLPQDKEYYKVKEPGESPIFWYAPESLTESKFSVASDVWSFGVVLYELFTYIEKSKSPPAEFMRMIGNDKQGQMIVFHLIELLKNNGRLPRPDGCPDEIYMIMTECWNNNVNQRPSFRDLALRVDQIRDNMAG

`CN1CCC[C@H]1CN1CC(n2nnc(Cn3cc(NC(=O)c4cnn5cccnc45)c(-c4cc(OC(F)F)ccc4OC(F)F)n3)n2)C1` (racemic) [Example 46, N-[3-[2,5-bis(difluoromethoxy)phenyl]-1-[[2-[1-[[rac-(2S)-1-methylpyrrolidin-2-yl]methyl]azetidin-3-yl]tetrazol-5-yl]methyl]pyrazol-4-yl]pyrazolo[1,5-a]pyrimidine-3-carboxamide; formic acid]: the figures for the Ki in test [1] and in test [2] were 400 pM and 490 pM, respectively. For the same compound, the IC50 in test [3] (Homo sapiens, BEAS-2B, 1 h) stood at 18000 pM.
On to `CN1CCC[C@H]1CN1CC(n2nnc(Cn3cc(NC(=O)c4cnn5cccnc45)c(-c4cc(OC(F)F)ccc4OC(F)F)n3)n2)C1` (racemic) [Example 52, N-[3-[2,5-bis(difluoromethoxy)phenyl]-1-[[2-[1-[[rac-(2R)-1-methylpyrrolidin-2-yl]methyl]azetidin-3-yl]tetrazol-5-yl]methyl]pyrazol-4-yl]pyrazolo[1,5-a]pyrimidine-3-carboxamide], for which the Ki in test [1] is 390 pM; in test [2] it was 380 pM. Besides, the IC50 in test [3] was found to be 19000 pM.
`CN1CCC[C@H]1Cn1nnnc1Cn1cc(NC(=O)c2cnn3cccnc23)c(-c2cc(OC(F)F)ccc2OC(F)F)n1` (racemic) [Example 54, N-[3-[2,5-bis(difluoromethoxy)phenyl]-1-[[1-[[rac-(2S)-1-methylpyrrolidin-2-yl]methyl]tetrazol-5-yl]methyl]pyrazol-4-yl]pyrazolo[1,5-a]pyrimidine-3-carboxamide]: the figures for the Ki in test [1] and in test [2] were 450 pM and 750 pM, respectively. For the same compound, the IC50 in test [3] (Homo sapiens, BEAS-2B, 1 h) stood at 51000 pM.
Turning to `CN1CCC(n2nnc(Cn3cc(NC(=O)c4cnn5cccnc45)c(-c4cc(OC(F)F)ccc4OC(F)F)n3)n2)C1` (single isomer, unassigned) [Example 29, N-[3-[2,5-bis(difluoromethoxy)phenyl]-1-[[2-(1-methylpyrrolidin-3-yl)tetrazol-5-yl]methyl]pyrazol-4-yl]pyrazolo[1,5-a]pyrimidine-3-carboxamide], the Ki was 250 pM in test [1] and 430 pM in test [2]. In addition, the IC50 in test [3] (Homo sapiens, BEAS-2B, 1 h) is 15000 pM.
`CN1CCC(n2nnc(Cn3cc(NC(=O)c4cnn5cccnc45)c(-c4cc(OC(F)F)ccc4OC(F)F)n3)n2)C1` (single isomer, unassigned) [Example 30, N-[3-[2,5-bis(difluoromethoxy)phenyl]-1-[[2-(1-methylpyrrolidin-3-yl)tetrazol-5-yl]methyl]pyrazol-4-yl]pyrazolo[1,5-a]pyrimidine-3-carboxamide]: the Ki is 310 pM in test [1] and 400 pM in test [2]. Also, the IC50 in test [3] worked out at 17000 pM.
For `CN(C)CCN1CCC(n2nnc(Cn3cc(NC(=O)c4cnn5cccnc45)c(-c4cc(OC(F)F)ccc4OC(F)F)n3)n2)C1` (single isomer, unassigned) [Example 67, N-[3-[2,5-bis(difluoromethoxy)phenyl]-1-[[2-[1-[2-(dimethylamino)ethyl]pyrrolidin-3-yl]tetrazol-5-yl]methyl]pyrazol-4-yl]pyrazolo[1,5-a]pyrimidine-3-carboxamide], the Ki in test [1] is 420 pM; in test [2] it was 530 pM. The IC50 in test [3] (Homo sapiens, BEAS-2B, 1 h) was 56000 pM.
`CN(C)CCN1CCC(n2nnc(Cn3cc(NC(=O)c4cnn5cccnc45)c(-c4cc(OC(F)F)ccc4OC(F)F)n3)n2)C1` (single isomer, unassigned) [Example 68, N-[3-[2,5-bis(difluoromethoxy)phenyl]-1-[[2-[1-[2-(dimethylamino)ethyl]pyrrolidin-3-yl]tetrazol-5-yl]methyl]pyrazol-4-yl]pyrazolo[1,5-a]pyrimidine-3-carboxamide]: the Ki in test [1] was 430 pM; in test [2], 460 pM. Besides, the IC50 in test [3] was 41000 pM.
Take `CN1CCC(N2CC(n3nnc(Cn4cc(NC(=O)c5cnn6cccnc56)c(-c5cc(OC(F)F)ccc5OC(F)F)n4)n3)C2)C1` (single isomer, unassigned) [Example 73, N-[3-[2,5-bis(difluoromethoxy)phenyl]-1-[[2-[1-(1-methylpyrrolidin-3-yl)azetidin-3-yl]tetrazol-5-yl]methyl]pyrazol-4-yl]pyrazolo[1,5-a]pyrimidine-3-carboxamide]: the Ki in test [1] was 550 pM; in test [2] it was 640 pM. The IC50 in test [3] came out at 43000 pM.
Take `CN(C)C1CCC(N2CC(n3nnc(Cn4cc(NC(=O)c5cnn6cccnc56)c(-c5cc(OC(F)F)ccc5OC(F)F)n4)n3)C2)C1` (single isomer, unassigned) [Example 74, N-[3-[2,5-bis(difluoromethoxy)phenyl]-1-[[2-[1-[3-(dimethylamino)cyclopentyl]azetidin-3-yl]tetrazol-5-yl]methyl]pyrazol-4-yl]pyrazolo[1,5-a]pyrimidine-3-carboxamide]: the Ki is 470 pM in test [1] and 550 pM in test [2]. The IC50 in test [3] was found to be 93000 pM.
For the compound `CN(C)C1CCC(N2CC(n3nnc(Cn4cc(NC(=O)c5cnn6cccnc56)c(-c5cc(OC(F)F)ccc5OC(F)F)n4)n3)C2)C1` (single isomer, unassigned) [Example 75, N-[3-[2,5-bis(difluoromethoxy)phenyl]-1-[[2-[1-[3-(dimethylamino)cyclopentyl]azetidin-3-yl]tetrazol-5-yl]methyl]pyrazol-4-yl]pyrazolo[1,5-a]pyrimidine-3-carboxamide], the Ki in test [1] and in test [2] was 1100 pM in each case. Also, the IC50 in test [3] is 200000 pM.
